# Measurements from patent US6251898A, “Medical use of fluorenone derivatives for treating and preventing brain and spinal injury” (Questcor Pharmaceuticals, Inc., priority 1999, dated 2001).
# System: UC11-MG human astrocytoma cells
# Assay: D-aspartate (excitotoxin) release by hypo-osmotically stressed astrocytoma cells
# Type: cell-based
# Description: The in vitro tests described in this example used UC11-MG human astrocytoma cells, obtained from the University of Cincinnati, and described in Liwnicz et al 1986 and Lomneth et al 1989. Cell culture reagents (including RPMI 1640, fetal bovine serum, trypsin, and gentamicin) were obtained from Gibco (Gaithersburg, Md.). Radiolabelled D-[2,3-^3 H]aspartate was obtained from Amersham Life Sciences (Buckinghamshire, England). ScintiVerse II scintillation fluid was obtained from Fisher Scientific (Pittsburgh, Pa.). All other chemicals were obtained from Sigma Chemical Co. (St. Louis, Mo.). Osmolarities of solutions were measured using the Advance DigiMatic Osmometer Model 3D II (Advanced Instruments Inc., Mass.).
# The UC11-MG astrocytoma cells were cultured in 75 ml vented flasks at 37° C. inside a humidified incubator in 5% CO2 /95% air. The cells were grown in RPMI Medium 1640 supplemented with 10% fetal bovine serum and […] gentamicin. At approximately 90% confluence, the cells were detached and suspended using a 0.0625% trypsin solution in Buffer A (137 mM NaCl, 5.37 mM KCl, 5.55 mM glucose, 4.17 mM NaHCO3, and 0.54 mM EDTA disodium salt, pH 7.4). The cells were then plated onto 6-well tissue culture plates at a seeding ratio of 4 plates per flask and 4 ml of cell-media suspension per well. The plated cells were used in experiments the next day at approximately 90% confluence. Plates that appeared to be more than 95% confluent were not used, because higher levels of confluence led to uncontrollable differentials in exposure of the cells to culture media and labelled aspartate. All tests were performed in triplicate. All media collections were done at 5 minute intervals, using pipettes, and were followed by promptly loading fresh buffer into each well before any drying occurred. All buffer samples collected in this manner were loaded into scintillation vials, mixed with 5 ml scintillation fluid, and counted for 1 minute in a scintillation counter (Beckman LS8000, Fullerton, Calif.).
# Prior to D-aspartate exposure, the wells were washed three times under sterile conditions with 3 ml of 37° C. Buffer B (122 mM NaCl, 3.3 mM KCl, 1.2 mM CaCl2, 0.4 mM MgSO4, 1.2 mM KH2 PO4, 25 mM Hepes, 10 mM glucose, pH 7.4).
# The cells were then loaded with 0.5 μCi/ml of D-aspartate, and incubated at 37° C. for 30 min. Cells were then washed four times with Buffer B, and the last washing fluid was left on the cells. The plates were then placed on an orbital shaker and maintained at 37° C.
# Baseline aspartate release levels (prior to drug treatment) were determined by incubating the cells with normal Buffer B (285 mOsm) for 15 minutes, while buffer was collected every 5 minutes.
# After the buffer was collected from a well at the 15 minute mark, the next set of normal Buffer B added to that well contained a test compound at a known concentration; each compound was tested over a range of concentrations. Cells were then incubated for two 5 minute intervals with solutions of test compounds in normal Buffer B. In some tests which used buffers containing relatively high concentrations of a test drug with limited solubility in water, DMSO was added to the mixture to increase the solubility of the compound in water.
# Beginning at the 25-minute mark, the cells were stimulated to begin releasing aspartate by loading a well with hypo-osmotic buffer, prepared by diluting Buffer B with an equal volume of distilled and deionized H2 O, resulting in an osmolarity of about 145 mOsm. This hypo-osmoticsolution caused the cells to begin taking in excess water, to try to reestablish the normal osmotic gradients that exist across the cell membranes. The water-induced swelling and stress then began to induce release of aspartate by the cells, and the amount of aspartate released by the swollen astrocyte cells was measured by removing the buffer every 5 minutes and testing it in a scintillation counter.
structure (smiles),measurement,setting,value
"CCC[C@]12CCC(=O)C=C1c1c(cc(OCC3=NCCO3)c(Cl)c1Cl)C2 [GERI-E7, R(+)-2-[[(5,6-dichloro-2,3,9,9a-tetrahydro-3-oxo-9a-propyl-1H-fluoren-7-yl)-oxy]methyl]oxazoline]",IC50,"Homo sapiens, UC11MG, hypo-osmotic stress, about 145 mOsm, AUC-based, read-out: IC50 value (suppression of excitotoxin / D-aspartate release by stressed astrocyte cells)",8.5 µM
same,Comparative potency,"relative to L-644,711 (100% = benchmark)","3,100%"
